Measurements: patent US11306100B2, “Spirooxindole compounds as GSK3B inhibitors and process for preparation thereof” (COUNCIL OF SCIENTIFIC & INDUSTRIAL RESEARCH, priority 2017, dated 2022)

Experiments:
[1] = system: NF-kB activity in PANC-1 cells; assay: NFkB luciferase reporter assay; type: cell-based; conditions: 48 h treatment, dose dependent
Description: In order to evaluate the effect of GSK3β inhibition on NF-kB activity, a reporter assay has been performed in the presence of identified inhibitors. To perform reporter assays, PANC-1 cells were cultured in a 48 well plate (16000 cells/well) overnight. Following day, cells were transfected with appropriate amount NF-kB reporter construct using lipofectamine 2000 as per manufacturer's protocol. After 16 hrs of post transfection cells were treated with identified GSK3β inhibitors and positive controls. After 48 h of treatment, cells were harvested in directly 1×ccl buffer. For measuring luciferase activity, 5 μl of cell lysate was mixed with 20 μl of assay reagent containing substrate for luciferase in MTP well plate as per manufacturer's protocol. The luciferase activity was determined by measuring luminescence at wavelengths in multimode reader. The protein concentration of the lysates was estimated by Bradford assay to normalize luciferase activity with protein present in the lysates. Then the relative luciferase activity was calculated according to control cells treated with DMSO set to 1. All experiments were performed in triplicates and the mean values with ±SD are presented here.

PANC-1 cells = assay: Colony formation (soft agar, clonogenic) assay; type: cell-based
Description: To determine the efficiency of GSK3β inhibitors in combination with the TRIAL on anchorage independent growth of PANC-1 cells soft agar assay were performed. The base agar (0.5%) was prepared by mixing equal amounts of 1% agar with 2× media (20% FBS and 2× antibiotics) filled in 6-well plate. Simultaneously, PANC-1 cells (14000/well) mixed with 2× media containing different concentrations of identified compounds alone or in combination with TRAIL mixed with 0.7% of sterile agar to achieve final concentration of […] top agar. The cell suspension was spread on solidified base agar. Then the plates were incubated in CO2 incubator for 14 days and the cells were fed with fresh media containing respective concentration and combination of TRIAL every 3 days. Upon termination (after 14 days of incubation) plates were stained with 0.005% of crystal violet for 1 h and excess stain was removed by washing with MQ. The number of blue colonies were counted using olympus Xi71 microscope.

[2] = compound in the presence of TRAIL 10 ηg/mL

Compound | NFkB luciferase activity [1] | inhibition of colony formation (PANC-1 cells; compound alone, 14 days) | inhibition of colony formation (PANC-1 cells; [2])
CCOC(=O)c1ccc(-c2ccccc2OCc2cn(CC3CC4(CO3)C(=O)Nc3ccccc34)nn2)nc1C (stereo not drawn) [AB-O, Ethyl 2-methyl-6-(2-((1-((2′-oxo-4,5-dihydro-2H-spiro[furan-3,3′-indoline]-5-yl)methyl)-1H-1,2,3-triazol-4-yl)methoxy)phenyl)nicotinate] | significantly decreased | dose-dependent inhibition | more effective inhibition of colony formation
COc1ccccc1N1CCN(CC2CC3(CO2)C(=O)Nc2ccccc23)CC1 (stereo not drawn) [AB-U, 5-((4-(2-Methoxyphenyl)piperazin-1-yl)methyl)-4,5-dihydro-2H-spiro[furan-3,3′-indolin]-2′-one] | significantly decreased | dose-dependent inhibition | more effective inhibition of colony formation
